Data on one molecule can be found in patent US20200399250A1, “Pyrimidine Derivatives as Tropomyosin Receptor Kinase A (TRKA) Inhibitors” (BIOMED X GMBH, priority 2017, published 2020).

A short description of series [1]: Plasma concentration of compound a1 after i.v. injection in mice (LC-MS-MS). As to conditions: for Plasma Conc. of Compound a1: 1 hour, single animal; for concentration at 1 h: female, C57Bl/6, mouse, plasma, intravenous. Format: in vivo, C57Bl/6 mice. The protocol: (§1) Compound a1 was synthesized under contract by the company Enamine Ltd. according to Example 1. Dimethylsulfoxide (DMSO) from J. T. Baker (Germany), Cremophor EL (Polyoxyethyleneglycerol triricinoleate 35 castor oil) from BASF (Germany), and Saline solution 0.9% from B. Braun (Germany) were used in this study. Two types of formulations were prepared: a formulation with a high dose of compound a1 (9 mM) and a formulation with a low dose of compound a1 (1.8 mM); c.f. Tables 5 and 6. First, a 100 mM stock solution of compound a1 in DMSO was prepared by dissolving 18.46 mg of compound a1 (molecular weight of 461.56 g/mol) in 400 μl DMSO at room temperature. The formulation with the high dose of a1 was prepared using 9% a1-DMSO stock solution, 10% Cremophor EL, and 81% saline. The formulation with the low dose of a1 contained 1.8% a1-DMSO stock solution, 5% Cremophor EL, and 93.2% saline; c.f. FIG. 2.
Experiments were carried out in accordance with the EU Directive 86/609/EEC on the protection of animals used for scientific purposes. Female adult C57Bl/6 mice (6-8 weeks old, body weight 20 g) were treated with 5 mg/kg (low dose) and 25 mg/kg (high dose) compound a1 or with vehicle (formulations without compound a1) or with saline by intravenous (i.v.) injections for 1 hour using a 1 ml syringe (29-G, Terumo); c.f. Table 6. After injection, the mice were returned to their home cages, and after 1 hour, the mice were anaesthetized with isoflurane. Terminal blood samples were collected using a 1 ml syringe (20-G needle, B. Braun). The blood was immediately transferred into a 1.3 ml heparin-coated tube (Sarstedt). Plasma was collected by centrifugation at 1500 g for 15 minutes. The supernatant was placed in a 1.5 ml tube on dry ice and stored at −20° C.
The quantification of compound a1 in murine plasma samples was performed via liquid chromatography tandem mass spectrometry (LC-MS-MS).

The test system of series [2] is C57Bl/6 mice. In words: Toxicity after i.v. injection in mice. As to conditions: for Toxicity: single animal. Format: in vivo. The protocol: as §1, with “.” for “Compound a1 was synthesized under contract by the company Enamine Ltd. according to Example 1.”, “[…].” for “First, a 100 mM stock solution of compound a1 in DMSO was prepared by dissolving 18.46 mg of compound a1 (molecular weight of 461.56 g/mol) in 400 μl DMSO at room temperature.”
Experiments were carried out in accordance with the EU Directive 86/609/EEC on the protection of animals used for scientific purposes. […]; c.f. Table 6. After injection, the mice were returned to their home cages, and after 1 hour, the mice were anaesthetized with isoflurane. Terminal blood samples were collected using a 1 ml syringe (20-G needle, B. Braun). The blood was immediately transferred into a 1.3 ml heparin-coated tube (Sarstedt). Plasma was collected by centrifugation at 1500 g for 15 minutes. The supernatant was placed in a 1.5 ml tube on dry ice and stored at −20° C.

Series [3] deals with TrkA (Homo sapiens, UniProt P04629). Description: KdELECT Kd measurement (KINOMEscan), TrkA. In kind it is binding. The protocol: (§2) Kd measurements were done via the KdELECT product service from DiscoverX Corporation (Freemont, Calif., USA) which also employs the KINOMEscan technology. Here, inhibitor binding constants (Kd values) are calculated from duplicate 11-point dose-response curves.

Series [4] has as its target TrkA. In words: KdELECT Kd measurement (KINOMEscan), TrkA. Format: binding. The protocol:
as §2

Where “and” joins values, the source holds several entries; their conditions need not be identical. Equal entries are not always repeated. Entries after “also recorded” stand apart in the source; their conditions may differ.

Chain of TrkA (Homo sapiens, UniProt P04629) (P04629 33-796): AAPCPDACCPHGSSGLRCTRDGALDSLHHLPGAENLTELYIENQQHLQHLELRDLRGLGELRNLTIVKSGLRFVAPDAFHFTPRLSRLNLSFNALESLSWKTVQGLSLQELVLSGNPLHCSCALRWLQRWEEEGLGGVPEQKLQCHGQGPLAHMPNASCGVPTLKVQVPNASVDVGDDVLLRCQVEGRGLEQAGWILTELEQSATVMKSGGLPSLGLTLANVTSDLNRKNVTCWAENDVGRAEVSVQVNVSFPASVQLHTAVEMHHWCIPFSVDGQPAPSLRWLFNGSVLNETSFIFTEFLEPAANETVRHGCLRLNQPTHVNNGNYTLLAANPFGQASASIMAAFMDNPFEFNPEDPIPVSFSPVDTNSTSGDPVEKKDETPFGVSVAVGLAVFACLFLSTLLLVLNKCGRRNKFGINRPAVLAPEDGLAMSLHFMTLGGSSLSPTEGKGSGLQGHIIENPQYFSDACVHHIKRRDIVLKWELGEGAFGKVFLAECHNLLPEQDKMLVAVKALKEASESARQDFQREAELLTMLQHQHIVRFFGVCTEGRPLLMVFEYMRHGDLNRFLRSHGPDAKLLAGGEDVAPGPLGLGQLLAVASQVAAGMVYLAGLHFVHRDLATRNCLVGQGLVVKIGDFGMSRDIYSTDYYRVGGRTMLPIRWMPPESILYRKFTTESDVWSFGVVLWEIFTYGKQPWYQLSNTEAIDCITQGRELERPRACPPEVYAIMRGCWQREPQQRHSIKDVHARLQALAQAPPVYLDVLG

Regarding `CN1CCN(c2cc(Nc3cc(-c4cccc(F)c4)[nH]n3)nc(Sc3ccccc3)n2)CC1` [a1, N-[5-(3-fluorophenyl)-1H-pyrazol-3-yl]-6-(4-methylpiperazin-1-yl)-2-(phenylsulfanyl)pyrimidin-4-amine], the “Plasma Conc. of Compound a1” value was 805 nM and 920 nM in series [1] (a1_high formulation, 25 mg/kg i.v., 25 mg/kg); 272 nM and 407 nM in series [1] (a1_low formulation, 5 mg/kg i.v., 5 mg/kg). The figures for the concentration at 1 h in series [1] (5 mg/kg (low dose) i.v.) and in series [1] (25 mg/kg (high dose) i.v.) were 340 nM and 863 nM, respectively. The signs of toxicity entry in series [2] (5 and 25 mg/kg i.v., all animals) is listed as “none of the animals showed any obvious signs of toxicity; also recorded: none of the animals showed any toxic sign”. For the same molecule, the Toxicity entry in series [2] (a1_high formulation, 25 mg/kg i.v.) is reported as “None”; in series [2] (a1_low formulation, 5 mg/kg i.v.), “None”. In addition, the “TrkA [pKd]” value in series [3] was determined as 8.6. Besides, binding in series [3] (duplicate 11-point dose-response curves) was put at a Kd of 2.6 nM. This molecule yielded a ΔpKd in series [4] (TrkA pKd versus AurA pKd) of 3.3. Also, the “improved selectivity against off-target AurA” value in series [4] (TrkA versus AurA) is 10,000 fold.
